Reference: US6759422B2, “Ion channel modulating agents” (Neurosearch A/S, priority 1999, dated 2004)

Molecular target: T1, Intermediate-conductance Ca2+-activated K+ channels (IK channels), hIK (Homo sapiens, UniProt O15554)
T1 construct: expressed in transfected cells; host or cells: HEK293
Test: Whole-cell patch-clamp recording of ionic current through IK channels stably expressed in HEK293 cells
Type: cell-based
Details: 1 μM test compound, baseline hIK current set to 100 (>100 activator, <100 blocker, 200 = doubling), whole-cell mode
Procedure: In this experiment the ionic current through Intermediate-conductance Ca^2+-activated K^+ channels (IK channels) is recorded in the whole-cell mode of the patch-clamp technique.
Intermediate-conductance Ca^2+-activated K^+ channels (IK channels) have been cloned from human placenta and stably expressed in HEK293 cells.
Human IK (hIK) was excised from pT3T7 (GenBank Acc. No. N56819) using EcoR I and Not I and subcloned into the mammalian expression vector pNS1Z (NeuroSearch), a custom designed derivative of pcDNA3Zeo (InVitrogen) to give the plasmid construct pNS1Z_hIK. HEK293 tissue culture cells were grown in DMEM (Dulbecco's Modified Eagle Medium) supplemented with 10% FCS (foetal calf serum) at 37° C. in 5% CO2. One day prior to transfection, 10^6 cells were plated in a cell culture T25 flask. The following day, cells were transfected using lipofection (20 μL Lipofectamin™, Life Technologies, with 2.5 μg of the plasmid pNS1Z_hIK in a total volume of 540 μL).
The lipofection mixture was overlaid on the cells and incubated at 37° C. for 5 hours. The cells were then rinsed with regular media and grown for 72 hours in DMEM, 10% FCS at 37° C. in 5% CO2. […]
Experiments are carried out on a patch-clamp workstation equipped with an autosampler. […] Data are stored directly on the harddisk and analysed by the IGOR software (wavemetrics, Lake Oswego, USA)
The whole-cell configuration of the patch clamp technique is applied. […] Cell capacitance is electronically compensated and the resistance between the pipette and the cell interior (the series resistance, Rs) is measured and compensated for. […]
The extracellular (bath) solution contains (conc. in mM): 144 KCl, 0.1 CaCl2, 3 MgCl2, 10 HEPES (pH=7.4). The intracellular (pipette) solution has the following composition (conc. in mM): 144 KCl, 10 EGTA, 10 HEPES (pH=7.2) as well as CaCl2 and MgCl2 in concentrations calculated to result in a free concentration of Ca^2+ between 100 nM and 300 nM. The free concentration of Mg^2+ is calculated to be 1 mM. […]

Ionic Currents: Value determined using 1 μM of the test compound | Structure (SMILES)
170 | Nc1nc2c(Cl)c(Cl)ccc2s1 [Compound 1, 2-amino-4,5-dichlorobenzothiazole]
130 | Cc1ccc2sc(N)nc2c1C [Compound 2, 2-amino-4,5-dimethylbenzothiazole]

Structure (SMILES) | Ionic Currents: Value determined using 1 μM of the test compound
Nc1nc2c3c(ccc2s1)CCCC3 [Compound 3, 2-amino-(5,6,7,8-tetrahydronaphto)-[1,2-d]-thiazole] | 400
